Consider two compounds from patent US20230181484A1, “Uses and Formulations of Cannabinoids” (priority 2020, published 2023).

The nature of data set [1]: systemic exposure after i.p. and oral application of CBD in mice (Deiana et al. 2012). Type of data set: in vivo. As to conditions: 20 mg/kg, assuming dose-proportional plasma concentrations. The protocol: A comparative investigation for systemic exposure after i.p. and oral application of CBD in mice and rats has shown that 120 mg/kg as a single dose leads to a maximum plasma concentration of 14,000 ng/ml in mice (S. Deiana et al. (2012). Plasma and brain pharmacokinetic profile of cannabidiol (CBD), cannabidivarine (CBDV), Delta(9)-tetrahydrocannabivarin (THCV) and cannabigerol (CBG) in rats and mice following oral and intraperitoneal administration and CBD action on obsessive-compulsive behaviour. Psychopharmacology (Bed) 219(3): 859-73).

For data set [2] the following is noted: decimal logarithm of n-octanol/water partition coefficient; cited from earlier work.
For data set [3] the following is noted: mice, 120 mg/kg single dose; cited from earlier work.
A further data set has as its system IL-6 secretion. The following applies: cellular models, majority of cases; cited from earlier work.
Data set [4] has as its system LPS-induced acute lung injury. The following applies: cited from earlier work.
The subject of data set [5] is LPS-induced acute lung injury. As to conditions: mice, 20 mg/kg, 6 h after LPS; cited from earlier work.
A further data set concerns human mononuclear cells. The following applies: nanomolar or micromolar concentrations; cited from earlier work.
In the next data set the test system is human neutrophils. The following applies: cited from earlier work.
Another data set concerns CD83. As to conditions: cited from earlier work.
The test system of the next data set is microglial cells. As to conditions: 1-16 μmol/l; cited from earlier work.
Data set [6] relates to chemically induced acute hepatitis. The following applies: mice, 25 mg/kg; cited from earlier work.
The test system of data set [7] is activated memory T cell line. As to conditions: 1-5 μmol/l, cited from earlier work.
In data set [8] the test system is ischemia-reperfusion-induced kidney injury. The following applies: mice, 10 mg/kg after induced kidney injury; cited from earlier work.
The next data set has as its system NK, NKT, T and B cells. The following applies: healthy rats, cited from earlier work.
A further data set addresses T1, IL-6 receptor (Homo sapiens, UniProt P08887).
T1 construct: host or cells: patients (in vivo)
T1 sequence (P08887 20-468): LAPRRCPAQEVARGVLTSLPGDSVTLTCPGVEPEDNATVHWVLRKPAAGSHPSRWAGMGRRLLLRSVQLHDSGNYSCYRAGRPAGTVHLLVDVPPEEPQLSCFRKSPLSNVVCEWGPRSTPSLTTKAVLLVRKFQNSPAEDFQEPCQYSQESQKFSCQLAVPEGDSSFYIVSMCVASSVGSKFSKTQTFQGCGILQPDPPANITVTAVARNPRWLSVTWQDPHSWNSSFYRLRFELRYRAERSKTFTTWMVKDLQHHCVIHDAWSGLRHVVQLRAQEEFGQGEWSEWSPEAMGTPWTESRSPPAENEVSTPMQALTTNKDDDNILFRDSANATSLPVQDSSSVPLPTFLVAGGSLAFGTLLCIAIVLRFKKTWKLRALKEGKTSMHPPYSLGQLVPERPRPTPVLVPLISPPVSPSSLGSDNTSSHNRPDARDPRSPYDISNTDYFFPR
As to conditions: patients with severe SARS-CoV-2 pneumonia, preliminary clinical data; cited from earlier work.

The mark [9] stands for this setting: mice, 0.3-80 mg/kg i.p. 60 min before LPS.

Like-named read-outs stand apart in the source and are kept apart here.

On to `C=C(C)[C@@H]1CCC(C)=C[C@H]1c1c(O)cc(CCCCC)cc1O` [CBD, 2-[(1R,6R)-3-methyl-6-(1-methylethenyl)-2-cyclohexen-1-yl]-5-pentyl-1,3-benzenediol], for which, in data set [1], the target peak exposure was 2,300 ng/ml. In [2], the “log P” value was “about 6.1”. Moreover, in data set [3], the maximum plasma concentration is listed as 14,000 ng/ml. Also, in the data set on IL-6 secretion, the “effective concentration, suppressive effect on IL-6 secretion” value is around 5 µM. The “number of leukocytes including macrophages and neutrophils in bronchoalveolar lavage fluid” value in data set [4] (mice, 20 mg/kg, after LPS-induced lung inflammation) is listed as “decreases”. Besides, in data set [4] (setting [9]), the myeloperoxidase activity result is reported as “significantly decreased”; the “pro-inflammatory cytokine production including TNF-α and IL-6” value is recorded as “significantly decreased”; the total leukocytes migration entry is given as “significantly decreased”; the vascular permeability result is “significantly decreased”. Further, the “dose at which effects reached a nearly maximum extent” value in data set [4] (prophylactic application, i.p.) is reported as 20 mg/kg. Besides, in [5], the “leukocyte migration (neutrophil, macrophages and lymphocytes) into the lungs” value was “decreased”; the mechanical lung function entry was “improved”; the “myeloperoxidase activity in the lung tissue” value is listed as “decreased”; the “production of proinflammatory cytokines/chemokines” value was “reduced”. The vascular permeability entry in [5] was “reduced”. In addition, in the data set on human mononuclear cells, the “release of pro-inflammatory cytokines” value is “suppressed”. For the same compound, in the data set with human neutrophils, the “migration of human neutrophils” value is “inhibits”. Further, the “CD83 dendritic cell activation marker” value in the data set with CD83 (dendritic cells derived from healthy individuals) is reported as “not”. Besides, the “CD83 dendritic cell activation marker” value with CD83 (dendritic cells derived from individuals with HIV infection) was “suppresses”. Moreover, the “apoptosis in microglial cells” value with microglial cells is recorded as “induces apoptosis”. In data set [6], the “expression of MDSCs” value is “induces”; the “pro-inflammatory cytokines such as IL-2, TNF-α and IL-6” value is given as “reduction”. For the same compound, in [7], the “IL-6 production and secretion” value was “decreased”; the “production of IL-10” value is “increased”. Moreover, the “autoantigen-specific Th17 cell phenotype (IL-17)” value in data set [7] (dose-dependently) is on record as “reduced”. In [8], the “decreased Treg17 and increased Th17 levels” value was “reversed”; the “effect on induced kidney injury” value is on record as “renoprotective”. The “numbers of NK cells and NKT cells” value in the data set on NK, NKT, T and B cells (2.5 mg/kg per day) is reported as “increased”. The “numbers of NK cells and NKT cells” value in the data set with NK, NKT, T and B cells (5 mg/kg per day) is “not affected”. Also, the “number of T cells including T helper cells and cytotoxic T cells and of B cells” value in the data set on NK, NKT, T and B cells (daily 5 mg/kg) is reported as “significantly reduced”.
Regarding “tocilizumab: humanized monoclonal antibody against the IL-6 receptor”, in the data set with IL-6 receptor, the “clinical effect of IL-6 blockade therapy” value is listed as “beneficial effects”.
